Assay results published in patent publication US20050136444A1 (priority 2003, published 2005).
“Also recorded” adds a separate entry of the source. Structures can show the parent of a compound that is named as a salt. Where two headings read alike, the source gives them in different places.

Columns and labels:
[1] = tested on: Compound 2616-induced Tactile Allodynia; assay: Compound 2616-induced Tactile Allodynia in naive rats, effect of dPQR; assay type: in vivo, rat; conditions: 10 mg/kg, i.p., 75 min post-injection, vs vehicle; Hydrochloride
Protocol: To confirm that the pronociceptive actions of Compound 2616 were mediated via NPFF1 receptors we performed a pharmacological experiment where we administered dPQR (Dansyl-Pro-Gln-Arg, a reported NPFF antagonist, custom synthesized by Phoenix Pharmaceuticals) to rats treated with Compound 2616. Baseline paw withdrawal thresholds were obtained in naive rats. Following testing, the rats received either vehicle or Compound 2616 (10 mg/kg, i.p.). […] Half of the rats that received Compound 2616 were then injected with either vehicle or dPQR (30 mg/kg, i.p.).

Hot Plate Test = assay: 52° C. hot plate test after systemic administration; assay type: in vivo, rat; conditions: rats, 10 mg/kg i.p., vs vehicle
Protocol: Rats were injected with either vehicle or 10 mg/kg Compound 2616 (i.p.) and then assessed for possible changes in sensitivity to a noxious thermal stimulus using the 52° C. hot plate test.

NPFF1 = NPFF1 (Homo sapiens, UniProt Q9GZQ6); assay: cAMP assay in transiently transfected HEK-T cells, NPFF1; assay type: cell-based; parameters: expressed in transfected cells; conditions: for Emax: HEK-T cell, read-out: NPFF1 % Efficacy Mean; for EC50: read-out: NPFF1 pEC50 Mean (converted)
Source text: An assay was established for measuring cAMP in transiently transfected cells that takes advantage of the fact that most cells that are transfected with one gene, can be simultaneously transfected with other genes. Thus, the NPFF1 and NPFF2 receptors were transfected along with a Gs-coupled receptor (EP2) at a ratio of 5:1. […] Improvement was also detected in the sensitivity of the assay in some cases when cells are co-transfected with AC5 at ½-⅕ of the amount of DNA of the Gi-coupled receptor studied.
This set up was routinely used for the transfection of HEK-T cells with NPFF1 and NPFF2 receptors. After 48 hours the cAMP assay was set up using DiscoveRx assay protocol with transfected cells in suspension in the presence of varying concentrations of the NPFF ligands and 300 nM of […] in white bottom plates. Cells were incubated for 15 minutes at 37° C. At the end of incubation, cells were lysed and the remainder of the assay performed as per DiscoveRx protocol.
Cells were incubated for another 15 minutes at 37° C. following which the cells were lysed and processed as per kit protocol.

[2] = tested on: formalin-induced flinching; assay: Formalin Flinching; assay type: in vivo, rat; conditions: rats, 10 mg/kg i.p. 15 min prior to formalin
Protocol: Naive male Sprague-Dawley rats (175-200 g) were injected with a test compound followed by an injection of 50 μl of a 5.0% formalin solution into the dorsal surface of a hind paw and then placed in individual plastic cages for observation. The number of nociceptive responses (i.e., paw flinches/licks/bites) was counted for a period of 60 min following formalin injection. […] Compounds were administered 15 min prior to formalin injection. The results are depicted in FIG. 4.
(§1) A model of tonic pain was created in rats by administering an injection of 5.0% formalin solution (50 μl) into the dorsal surface of a hind paw and then placing the rat in an individual plastic cage for observation. Paw flinches/licks/bites are counted for a period of 60 min. Rats received either vehicle or Compound 3099 (10 mg/kg, i.p.) 15 min prior to the formalin injection. […] This finding is consistent with our previous data.
as §1, with “min.” for “min. Rats received either vehicle or Compound 3099 (10 mg/kg, i.p.) 15 min prior to the formalin injection.”

[3] = tested on: Carrageenan-induced Thermal Hyperalgesia; assay: Carrageenan-induced Thermal Hyperalgesia (hot plate); assay type: in vivo, rat; conditions: for hot plate latencies in vehicle-treated (no carrageenan) rats: 10 mg/kg; for calculated A50, reversal of thermal hyperalgesia: 95% CI; for reversal of carrageenan-induced thermal hyperalgesia: rats, 1, 3 and 10 mg/kg, hot plate
Protocol: Naive male Sprague-Dawley rats (175-200 g) were assessed for their responsiveness to a noxious thermal stimulus. Response latencies were measured using the hot plate test. Rats were placed in a plexiglass enclosure on a thermostatically controlled metal plate maintained at 52° C. […] Following testing, an animal model of acute inflammatory pain was created by injecting 100 μl of 2% λ-carrageenan ion to a hind paw. Three hours after carrageenan injection, hot plate latencies were again obtained. A significant reduction in the hot plate latency was interpreted as the presence of thermal hyperalgesia. Rats were injected with compound or vehicle and then tested at various time-points following drug administration. Data were converted to % Maximum Possible Effect (% MPE) by the formula, % MPE=((test-post-inflammatory)/(naive-post-inflammatory))*100, where the test score is the hot plate latency obtained after compound administration, the post-inflammatory score is the average response obtained 3 hr post-carrageenan, and the naive score is the average response obtained prior to manipulation. Additionally, paw thickness was measured (with a micrometer) following testing in order to quantify edema. Although none of the compounds tested reversed carrageenan-induced edema formation (data not shown), these compounds produced a dose-related reversal of carrageenan-induced thermal hyperalgesia.
Rats were injected (i.paw.) with 100 μl of 2% carrageenan or vehicle (dH2O) in order to produce a state of acute inflammatory pain. […] Rats were then treated with various doses of Compound 1045 (1, 3 and 10 mg/kg, i.p.) and hot plate latencies were tested across a period of 3 hours.
Rats were injected (i.paw.) with 100 μl of 2% carrageenan or vehicle (dH2O) in order to produce a state of acute inflammatory pain.
Rats were injected (i.paw.) with 100 μl of 2% carrageenan or vehicle (dH2O) in order to produce a state of acute inflammatory pain. […] Rats were then treated with various doses of Compound 3099 (1, 3 and 10 mg/kg, i.p.) and hot plate latencies were tested across a period of 3 hours.

[4] = tested on: 52° C. Water Tail Flick Test; assay: 52° C. Water Tail Flick Test, intrathecal administration; assay type: in vivo, rat; conditions: rats, morphine 3, 10, 30 μg, NPFF 100 μg, 1045 11.6 or 115.5 μg, 1DME 5.6, 55.6 or 556.0 μg
Protocol: Rats were implanted with chronically indwelling intrathecal catheters (PE-10; 7.5 cm) allowing for the delivery of compounds to the lumbar spinal cord. As a positive control, rats were treated with various doses of morphine (3, 10 and 30 μg).
Rats were implanted with chronically indwelling intrathecal catheters (PE-10; 7.5 cm) allowing for the delivery of compounds to the lumbar spinal cord.
Rats were implanted with chronically indwelling intrathecal catheters (PE-10; 7.5 cm) allowing for the delivery of compounds to the lumbar spinal cord. In order to rule out the possibility that the lack of antinociception produced by NPFF was due to the degradation of the peptide we administered 1DME (a stable NPFF analog).

[5] = cAMP data, Table 2, HEK-T cells

Sequence of NPFF1 (Q9GZQ6 whole entry, species assumed): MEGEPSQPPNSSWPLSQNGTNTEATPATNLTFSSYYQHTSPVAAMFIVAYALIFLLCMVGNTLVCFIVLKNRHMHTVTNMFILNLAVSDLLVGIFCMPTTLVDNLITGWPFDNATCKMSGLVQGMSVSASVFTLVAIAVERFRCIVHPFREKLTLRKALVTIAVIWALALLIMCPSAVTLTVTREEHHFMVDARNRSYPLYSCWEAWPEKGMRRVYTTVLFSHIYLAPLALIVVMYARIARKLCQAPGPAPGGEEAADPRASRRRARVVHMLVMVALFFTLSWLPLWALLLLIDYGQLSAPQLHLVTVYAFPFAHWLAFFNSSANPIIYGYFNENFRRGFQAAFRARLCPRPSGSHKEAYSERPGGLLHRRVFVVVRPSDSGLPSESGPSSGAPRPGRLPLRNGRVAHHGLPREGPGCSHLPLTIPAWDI

Row | Emax (NPFF1; [5]) [%] | SMILES | paw withdrawal thresholds / tactile sensitivity of naive rats [1] | hot plate latency (thermal hyperalgesia) (Hot Plate Test) | Emax (NPFF1) [%] | EC50 (NPFF1; [5]) [µM] | formalin-induced flinching, phase I ([2]; 0-10 min post-formalin) | inhibition of formalin-induced flinching, phase II ([2]; 15-60 min post-formalin) [% inhibition] | hot plate latencies in vehicle-treated (no carrageenan) rats [3] | time of peak effect after administration ([3]; carrageenan-treated rats, i.p.) [min] | calculated A50, reversal of thermal hyperalgesia ([3]; carrageenan-treated rats, i.p.) | reversal of carrageenan-induced thermal hyperalgesia ([3]; i.p.) | antinociception in 52° C. water tail flick test [4] | maximum efficacy, reversal of thermal hyperalgesia ([3]; carrageenan-treated rats, i.p.) [%] | carrageenan-induced edema formation in the hind paw ([3]; rats, paw thickness)
1 | – | NC(N)=NN=Cc1ccc(-c2ccccc2C(F)(F)F)o1 (racemic) [Compound 2616, 1-[(5-(2-(Trifluoromethyl)phenyl)-furan-2-yl)-methyleneamino]guanidine Hydrochloride] | markedly decreased; also recorded: resulted in an increased sensitivity to innocuous tactile stimulation | produced a significant reduction in the hot plate latency | 93 | 1.26 | – | – | – | – | – | – | – | – | –
2 | 23 | Cl.N=C(N)N/N=C/c1ccc(Br)c(Br)c1 [Compound 3093, 1-(3,4-Dibromobenzylideneamino)guanidine Hydrochloride] | – | – | – | 15.8 | inactive | ~62.1 | did not significantly alter the hot plate latencies | 30 to 60 | 1.6 mg | dose-related reversal of thermal hyperalgesia | – | – | –
3 | – | NC(N)=N/N=C/c1ccc(Cl)c(Cl)c1 [Compound 1045, 1-(3,4-Dichlorobenzylideneamino)guanidine Hydrochloride] | – | – | – | – | – | – | did not significantly alter sensitivity to noxious thermal stimulation | – | 7.8 mg/kg | dose-related reversal of thermal hyperalgesia | failed to elicit antinociception | 57.6 | did not significantly alter edema formation
